According to PubChem BioAssay AID1963833 (Molecular Pharmacology Branch, DTP, NCI, 2024):

Test system: 883617-216-R-J1-PDC complex spheroid viability
Experiment: Anticancer human tumor 883617-216-R-J1-PDC patient-derived bladder carcinoma cell line growth inhibition [POLQ]
Details: for IC50: curve of first compound; for viability, T/C: stronger effect = lower value
Method in brief: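 Three-cell-type spheroids modelling solid tumor plus stroma served as the readout system; POL inhibitors were tested individually and in combination, concentration ranges set by clinical Cmax where known.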

[1] = second compound 0.0316 µM, first compound 0.0316 µM
[2] = second compound 0.0316 µM, first compound 0.1 µM
[3] = second compound 0.0316 µM, first compound 0.316 µM
[4] = second compound 0.0316 µM, first compound 1 µM
[5] = second compound 0.0316 µM, first compound 3.16 µM
[6] = second compound 0.0316 µM, first compound 10 µM
[7] = second compound 0.1 µM, first compound 0.0316 µM
[8] = second compound 0.1 µM, first compound 0.1 µM
[9] = second compound 0.1 µM, first compound 0.316 µM
[10] = second compound 0.1 µM, first compound 1 µM
[11] = second compound 0.1 µM, first compound 3.16 µM
[12] = second compound 0.1 µM, first compound 10 µM
[13] = second compound 0.316 µM, first compound 0.0316 µM
[14] = second compound 0.316 µM, first compound 0.1 µM
[15] = second compound 0.316 µM, first compound 0.316 µM
[16] = second compound 0.316 µM, first compound 1 µM
[17] = second compound 0.316 µM, first compound 3.16 µM
[18] = second compound 0.316 µM, first compound 10 µM
[19] = second compound 1 µM, first compound 0.0316 µM
[20] = second compound 1 µM, first compound 0.1 µM
[21] = second compound 1 µM, first compound 0.316 µM
[22] = second compound 1 µM, first compound 1 µM
[23] = second compound 1 µM, first compound 3.16 µM
[24] = second compound 1 µM, first compound 10 µM
[25] = second compound 3.16 µM, first compound 0.0316 µM
[26] = second compound 3.16 µM, first compound 0.1 µM
[27] = second compound 3.16 µM, first compound 0.316 µM
[28] = second compound 3.16 µM, first compound 1 µM
[29] = second compound 3.16 µM, first compound 3.16 µM
[30] = second compound 3.16 µM, first compound 10 µM
[31] = second compound 10 µM, first compound 0.0316 µM
[32] = second compound 10 µM, first compound 0.1 µM
[33] = second compound 10 µM, first compound 0.316 µM
[34] = second compound 10 µM, first compound 1 µM
[35] = second compound 10 µM, first compound 3.16 µM
[36] = second compound 10 µM, first compound 10 µM
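Also: spheroids exposed to compounds for seven days before readout.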
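For viability, T/C in this document: 100% = DMSO vehicle control viability.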

CCc1cc2c(N3CCc4c(cc(Cn5ccnc5)cc4-c4cn(C)nc4C(F)(F)F)C3=O)cc(C)nc2c(OC)n1 + Cc1cccc(N(C)C(=O)C2C(O)CCN2c2nc(C)cc(C(F)(F)F)c2C#N)c1
IC50 (second compound 0.0316 µM): 7.4 µM
IC50 (second compound 0.1 µM): 8.3 µM
IC50 (second compound 0.316 µM): > 10 µM
IC50 (second compound 1 µM): 7.69 µM
IC50 (second compound 3.16 µM): > 10 µM
IC50 (second compound 10 µM): 8.25 µM
viability, T/C [1]: 87.4%
viability, T/C [2]: 95.6%
viability, T/C [3]: 91.7%
viability, T/C [4]: 91.7%
viability, T/C [5]: 72.8%
viability, T/C [6]: 41.8%
viability, T/C [7]: 86.1%
viability, T/C [8]: 102%
viability, T/C [9]: 94.5%
viability, T/C [10]: 97.6%
viability, T/C [11]: 72.8%
viability, T/C [12]: 45.6%
viability, T/C [13]: 81.3%
viability, T/C [14]: 89.2%
viability, T/C [15]: 98.8%
viability, T/C [16]: 83.8%
viability, T/C [17]: 69.9%
viability, T/C [18]: 53%
viability, T/C [19]: 89.1%
viability, T/C [20]: 88.3%
viability, T/C [21]: 106%
viability, T/C [22]: 92.5%
viability, T/C [23]: 71.1%
viability, T/C [24]: 43.8%
viability, T/C [25]: 99.8%
viability, T/C [26]: 94.4%
viability, T/C [27]: 102%
viability, T/C [28]: 84.8%
viability, T/C [29]: 74.6%
viability, T/C [30]: 58.3%
viability, T/C [31]: 107%
viability, T/C [32]: 110%
viability, T/C [33]: 93%
viability, T/C [34]: 95.3%
viability, T/C [35]: 69.9%
viability, T/C [36]: 45.9%

COc1cc2cc(C(=O)CCC(=O)O)sc2cc1OC + Cc1cccc(N(C)C(=O)C2C(O)CCN2c2nc(C)cc(C(F)(F)F)c2C#N)c1
IC50 (second compound 0.0316 µM): > 10 µM
IC50 (second compound 0.1 µM): > 10 µM
IC50 (second compound 0.316 µM): > 10 µM
IC50 (second compound 1 µM): > 10 µM
IC50 (second compound 3.16 µM): > 10 µM
IC50 (second compound 10 µM): > 10 µM
viability, T/C [1]: 99.1%
viability, T/C [2]: 101%
viability, T/C [3]: 109%
viability, T/C [4]: 106%
viability, T/C [5]: 101%
viability, T/C [6]: 115%
viability, T/C [7]: 98.3%
viability, T/C [8]: 107%
viability, T/C [9]: 111%
viability, T/C [10]: 87.8%
viability, T/C [11]: 95.6%
viability, T/C [12]: 102%
viability, T/C [13]: 115%
viability, T/C [14]: 114%
viability, T/C [15]: 89.5%
viability, T/C [16]: 100%
viability, T/C [17]: 95.9%
viability, T/C [18]: 102%
viability, T/C [19]: 91.7%
viability, T/C [20]: 98.5%
viability, T/C [21]: 90.2%
viability, T/C [22]: 118%
viability, T/C [23]: 92.8%
viability, T/C [24]: 102%
viability, T/C [25]: 94.9%
viability, T/C [26]: 115%
viability, T/C [27]: 116%
viability, T/C [28]: 112%
viability, T/C [29]: 112%
viability, T/C [30]: 106%
viability, T/C [31]: 121%
viability, T/C [32]: 108%
viability, T/C [33]: 122%
viability, T/C [34]: 116%
viability, T/C [35]: 119%
viability, T/C [36]: 117%

O=C(Nc1ccc(O)c(NS(=O)(=O)c2ccc(F)cc2)c1)c1ccc(-c2ccccc2)cc1 + Cc1cccc(N(C)C(=O)C2C(O)CCN2c2nc(C)cc(C(F)(F)F)c2C#N)c1
IC50 (second compound 0.0316 µM): > 10 µM
IC50 (second compound 0.1 µM): > 10 µM
IC50 (second compound 0.316 µM): > 10 µM
IC50 (second compound 1 µM): > 10 µM
IC50 (second compound 3.16 µM): > 10 µM
IC50 (second compound 10 µM): > 10 µM
viability, T/C [1]: 96.5%
viability, T/C [2]: 90.4%
viability, T/C [3]: 86.6%
viability, T/C [4]: 91.7%
viability, T/C [5]: 81.9%
viability, T/C [6]: 65.5%
viability, T/C [7]: 98.6%
viability, T/C [8]: 98%
viability, T/C [9]: 96.5%
viability, T/C [10]: 80%
viability, T/C [11]: 79.3%
viability, T/C [12]: 66.3%
viability, T/C [13]: 97.6%
viability, T/C [14]: 103%
viability, T/C [15]: 95.3%
viability, T/C [16]: 93.1%
viability, T/C [17]: 83.3%
viability, T/C [18]: 68.2%
viability, T/C [19]: 97.9%
viability, T/C [20]: 99.7%
viability, T/C [21]: 99.1%
viability, T/C [22]: 82.9%
viability, T/C [23]: 88.3%
viability, T/C [24]: 71.1%
viability, T/C [25]: 94.6%
viability, T/C [26]: 103%
viability, T/C [27]: 85.3%
viability, T/C [28]: 105%
viability, T/C [29]: 80.8%
viability, T/C [30]: 75.4%
viability, T/C [31]: 105%
viability, T/C [32]: 102%
viability, T/C [33]: 94.2%
viability, T/C [34]: 91%
viability, T/C [35]: 81.5%
viability, T/C [36]: 57.1%

COc1cccc2c1C(=O)c1c(O)c3c(c(O)c1C2=O)CC(O)(C(=O)CO)CC3OC1CC(N)C(O)C(C)O1 (stereo not drawn) + Nc1ccc(C#CCN(C(=O)Cc2ncc(C(F)(F)F)cc2C(F)(F)F)c2ccc(F)cc2)nn1
IC50 (second compound 0.0316 µM): 0.44 µM
IC50 (second compound 0.1 µM): 0.382 µM
IC50 (second compound 0.316 µM): 0.341 µM
IC50 (second compound 1 µM): 0.398 µM
IC50 (second compound 3.16 µM): 0.371 µM
IC50 (second compound 10 µM): 0.419 µM
viability, T/C [1]: 76.5%
viability, T/C [2]: 67.2%
viability, T/C [3]: 62.8%
viability, T/C [4]: 19.8%
viability, T/C [5]: 0.23%
viability, T/C [6]: 0.18%
viability, T/C [7]: 71.3%
viability, T/C [8]: 74.7%
viability, T/C [9]: 55.2%
viability, T/C [10]: 18.8%
viability, T/C [11]: 0.24%
viability, T/C [12]: 0.17%
viability, T/C [13]: 79.3%
viability, T/C [14]: 72.2%
viability, T/C [15]: 52.9%
viability, T/C [16]: 16.7%
viability, T/C [17]: 0.21%
viability, T/C [18]: 0.71%
viability, T/C [19]: 77.3%
viability, T/C [20]: 64.2%
viability, T/C [21]: 59.7%
viability, T/C [22]: 15.4%
viability, T/C [23]: 0.76%
viability, T/C [24]: 0.21%
viability, T/C [25]: 78.5%
viability, T/C [26]: 68.6%
viability, T/C [27]: 56.6%
viability, T/C [28]: 15.3%
viability, T/C [29]: 0.47%
viability, T/C [30]: 0.94%
viability, T/C [31]: 81.8%
viability, T/C [32]: 63%
viability, T/C [33]: 62.6%
viability, T/C [34]: 14.5%
viability, T/C [35]: 0.53%
viability, T/C [36]: 0.36%
